In patent publication US6153591A, “Dipeptide caspase inhibitors and the use thereof” (Cytovia, Inc., priority 1999, dated 2000):
Square brackets hold non-standard residues; d marks the D form. Peptide text beside a SMILES is read from it. * marks the point of attachment. ξ: configuration not given here. 1Nal = N[C@@H](Cc1cccc2ccccc12)C(=O)O; ξPhg = NC(C(=O)O)c1ccccc1; Cbz = O=C(OCc1ccccc1)*; CH2F = FC*

Experiments:
caspase-3 (CPP32) = target: T1, caspase-3 (CPP32) (Homo sapiens, UniProt P42574); experiment: Fluorometric enzyme assay of caspase-3 inhibition; assay type: biochemical; settings: recombinant caspase-3, substrate Asp-Glu-Val-Asp-AMC 5 μM, 30° C., 30 minutes
T1 construct: made in house; host or cells: Sf9 insect cells, baculovirus vector
T1 sequence (P42574 29-175 limits assumed): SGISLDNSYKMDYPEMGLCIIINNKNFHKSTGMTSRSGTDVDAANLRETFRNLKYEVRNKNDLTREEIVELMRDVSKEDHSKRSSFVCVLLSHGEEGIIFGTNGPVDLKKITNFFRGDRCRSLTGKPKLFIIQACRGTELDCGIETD
T1 sequence (P42574 176-277 limits assumed): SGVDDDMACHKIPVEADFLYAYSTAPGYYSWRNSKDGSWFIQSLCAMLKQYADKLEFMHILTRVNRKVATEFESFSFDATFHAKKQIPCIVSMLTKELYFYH
Procedure: The activity of Cbz-Phg-Asp-fmk as an inhibitor of caspase-3 (CPP32) was measured in a fluorometric enzyme assay. Recombinant caspase-3 protein was prepared by expressing DNA clones encoding these enzymes in an insect host cell (sf9 cells) using baculovirus as the vector. See, Webb, N.R. et al., "Expression of proteins using recombinant Baculovirus," Techniques 2:173-188 (1990). Enzyme activity was measured using synthetic peptide substrates attached to a fluorogenic leaving group. Cleavage of the synthetic substrate by the enzyme results in a fluorescent signal which is read in a spectrofluorometer or in a fluorometric microtiter plate reader.
Caspase-3 activity was measured using the following buffer conditions: 100 mM HEPES pH 7.5, with 10% sucrose, 1% CHAPS. The peptide substrate for caspase-3 is Asp-Glu-Val-Asp-AMC (SEQ ID NO:2). […] The assay for enzyme activity was typically carried out at 30° C. for 30 minutes.

[1] = test system: lethality in mice caused by an anti-Fas antibody (clone Jo2); experiment: Protection against lethality in mice caused by anti-Fas antibody (clone Jo2); assay type: in vivo; settings: Swiss Webster female mice, 6 μg Fas antibody
Procedure: Cbz-Phg-Asp-fmk was examined as a protectant against lethality in mice caused by an anti-Fas antibody (clone Jo2) (Rodriguez, I. et al J. Exp. Med 184:2067-2072 (1996). Swiss Webster female mice weighing between 16-20 g were used. Food and water were given ad libium. Purified hamster anti-mouse Fas monoclonal antibody (clone Jo2, commercially available) 1 mg/ml in phosphate buffered saline was dosed i.v. at 6 μg/mouse (80 μl).
Cbz-Phg-Asp-fmk was dissolved in 0.05M Tris base adjusted to pH 8.5 with HCl. The concentration of Cbz-Phg-Asp-fmk was 1-10 mg/ml dosed as a single bolus i.v. in a volume of 1-5 μl/g body weight. Five groups of mice were injected with 6 μg of Fas antibody per mouse. 5 minutes following the antibody injection the mice received either Tris vehicle control or 1, 2.5, 10 or 50 mg/kg of Cbz-Phg-Asp-fmk. The survival of the mice was followed throughout 24 hours.

## O=C(O)CC(NC(=O)C(NC(=O)OCc1ccccc1)c1cccs1)C(=O)CF (stereo not shown) [Z-[(L)-2-Thg]--Asp--fmk, Z-[(L)-2-Thg]-Asp-fmk]
caspase-3 (CPP32)
  IC50: 510 nM

## O=C(O)C[C@H](NC(=O)C(NC(=O)OCc1ccccc1)c1ccccc1)C(=O)CF (stereo partly drawn) [Cbz-Phg-Asp-fmk] (Cbz-[ξPhg]-Asp-CH2F)
[1]; 1 mg/kg i.v., 1 h
  Percent survival: 100%
[1]; 1 mg/kg i.v., 3 h
  Percent survival: 14.3%
[1]; 1 mg/kg i.v., 24 h
  Percent survival: 0%
[1]; 2.5 mg/kg i.v., 1 h
  Percent survival: 100%
[1]; 2.5 mg/kg i.v., 3 h
  Percent survival: 28.6%
[1]; 2.5 mg/kg i.v., 24 h
  Percent survival: 0%
[1]; 10 mg/kg i.v., 1 h
  Percent survival: 100%
[1]; 10 mg/kg i.v., 3 h
  Percent survival: 42.9%
[1]; 10 mg/kg i.v., 24 h
  Percent survival: 14.3%
[1]; 50 mg/kg i.v., 1 h
  Percent survival: 100%
[1]; 50 mg/kg i.v., 3 h
  Percent survival: 100%
[1]; 50 mg/kg i.v., 24 h
  Percent survival: 42.9%

## O=C(O)CC(NC(=O)C(NC(=O)OCc1ccccc1)c1ccc(Cl)cc1)C(=O)CF (stereo not shown) [Z-(4-Cl--Phg)--Asp--fmk, Z-(4-Cl-Phg)-Asp-fmk]
caspase-3 (CPP32)
  IC50: 270 nM

## N#CCC(NC(=O)OCc1ccccc1)C(=O)NC(CC(=O)O)C(=O)CF (stereo not shown) [Z-[(L)-3-CN--Ala]--Asp--fmk, Z-[(L)-3-CN-Ala]-Asp-fmk]
caspase-3 (CPP32)
  IC50: 530 nM

## O=C(O)CC(NC(=O)C(NC(=O)OCc1ccccc1)c1ccsc1)C(=O)CF (stereo not shown) [Z-(3-Thg)--Asp--fmk, Z-(3-Thg)-Asp-fmk]
caspase-3 (CPP32)
  IC50: 340 nM

## O=C(O)C[C@H](NC(=O)CC(NC(=O)OCc1ccccc1)c1ccccc1)C(=O)CF (stereo partly drawn) [Z-(3-Ph-- --Ala)--Asp--fmk, Z-(3-Ph-β-Ala)-Asp-fmk]
caspase-3 (CPP32)
  IC50: 4700 nM

## O=C(O)CC(NC(=O)C(CCl)NC(=O)OCc1ccccc1)C(=O)CF (stereo not shown) [Z-[(L)-3-Cl--Ala]--Asp--fmk, Z-[(L)-3-Cl-Ala]-Asp-fmk]
caspase-3 (CPP32)
  IC50: 1000 nM

## O=C(O)CC(NC(=O)C(NC(=O)OCc1ccccc1)c1ccccc1F)C(=O)CF (stereo not shown) [Z-(2-F--Phg)--Asp--fmk, Z-(2-F-Phg)-Asp-fmk]
caspase-3 (CPP32)
  IC50: 360 nM

## CC(C)(F)[C@H](NC(=O)OCc1ccccc1)C(=O)N[C@@H](CC(=O)O)C(=O)CF [Z-(3-F-Val)--Asp--fmk, Z-(3-F-Val)-Asp-fmk]
caspase-3 (CPP32)
  IC50: 440 nM

## CC(C)C(CNC(=O)OCc1ccccc1)C(=O)N[C@@H](CC(=O)O)C(=O)CF (stereo partly drawn) [Z-(2-i-Pr-- --Ala)--Asp--fmk, Z-(2-i-Pr-β-Ala)-Asp-fmk]
caspase-3 (CPP32)
  IC50: 1400 nM

## O=C(O)C[C@H](NC(=O)[C@H](Cc1cccc2ccccc12)NC(=O)OCc1ccccc1)C(=O)CF [Z-[(L)-1-Nal]--Asp--fmk, Z-[(L)-1-Nal]-Asp-fmk] (Cbz-[1Nal]-Asp-CH2F)
caspase-3 (CPP32)
  IC50: 1000 nM

## O=C(O)CC(NC(=O)C(CF)NC(=O)OCc1ccccc1)C(=O)CF (stereo not shown) [Z-(3-F-Ala)--Asp--fmk, Z-(3-F-Ala)-Asp-fmk]
caspase-3 (CPP32)
  IC50: 900 nM

## O=C(O)CC(NC(=O)C(NC(=O)OCc1ccccc1)c1ccco1)C(=O)CF (stereo not shown) [Z-(2-Fug)--Asp--fmk, Z-(2-Fug)-Asp-fmk]
caspase-3 (CPP32)
  IC50: 440 nM

## O=C(O)CC(NC(=O)C(NC(=O)OCc1ccccc1)c1ccsc1)C(=O)CF (stereo not shown) [Z-[(L)-3-Thg]--Asp--fmk] [Z-[(L)-3-Thg]-Asp-fmk]
caspase-3 (CPP32)
  IC50: 260 nM

## CN(C)CC(NC(=O)OCc1ccccc1)C(=O)NC(CC(=O)O)C(=O)CF (stereo not shown) [Z-(3-Me2 N--Ala]--Asp--fmk, Z-(3-Me2 N-Ala)-Asp-fmk]
caspase-3 (CPP32)
  IC50: 9600 nM

## O=C(O)CC(NC(=O)C(NC(=O)OCc1ccccc1)c1ccc(F)cc1)C(=O)CF (stereo not shown) [Z-(4-F-Phg)--Asp--fmk, Z-(4-F-Phg)-Asp-fmk]
caspase-3 (CPP32)
  IC50: 1200 nM

## CC(C(NC(=O)OCc1ccccc1)C(=O)NC(CC(=O)O)C(=O)CF)C(F)(F)F (stereo not shown) [Z--(F3 --Val)--Asp--fmk, Z-(F3 -Val)-Asp-fmk]
caspase-3 (CPP32)
  IC50: 600 nM

## Z-[3-F-3-Me-Ala]-Asp-fmk [Z-(3-F-3-Me--Ala)--Asp--fmk]
caspase-3 (CPP32)
  IC50: 480 nM

## O=C(O)CC(NC(=O)C(NC(=O)OCc1ccccc1)c1ccc(C(F)(F)F)cc1)C(=O)CF (stereo not shown) [Z-(4-CF3 --Phg)--Asp--fmk, Z-(4-CF3 -Phg)-Asp-fmk]
caspase-3 (CPP32)
  IC50: 1200 nM

## O=C(O)C[C@H](NC(=O)C(NC(=O)OCc1ccccc1)c1cccs1)C(=O)CF (stereo partly shown) [Z-(2-Thg)--Asp--fmk, Z-(2-Thg)-Asp-fmk]
caspase-3 (CPP32)
  IC50: 280 nM
